Assay results published in patent publication US8916526B2, “Flavanone derivative” (National University Corporation Okayama University, priority 2009, dated 2014).
Converted amounts (≈) assume the structure as drawn.

Key:
Escherichia coli K-12 = experiment: Antibacterial activity (MIC) against Gram-negative strains, microdilution; format: cell-based; conditions: for MIC (Gram-nagative) K-12: MIC after 24 h
Procedure: (§1) The antibacterial activities were measured based on broth dilution techniques of international standards (Clinical Laboratory Standards Institute: CLSI). The activities were shown by minimum inhibitory concentrations (MICs) determined by inoculating the above-mentioned strains at a concentration of about 10^5 […] into Mueller-Hinton broth (manufactured by Difco) containing 0.85% NaCl in 96-well microplates and incubating the plates at 35° C. for 24 hours. Measurement was carried out three times.

[1] = system: Pseodomonas aeruginosa PAOI; experiment: as above; format: cell-based; conditions: MIC after 24 h
Procedure: as §1

[2] = system: Vancomycin intermediate-resistant Staphylococcus aureus Mu50; experiment: In vitro infectivity assay (MIC), Exp. Ex. 2-1; format: cell-based; conditions: Gram-positive, microdilution, MIC after 24 h
Procedure: as §1
(§2) The antibacterial activities of the compounds of the present invention against various strains such as vancomycin-resistant enterococci (VRE), vancomycin intermediate-resistant Staphylococcus aureus (VISA), methicillin-resistant Staphylococcus aureus (MRSA), and methicillin-sensitive Staphylococcus aureus (MSSA) were examined. Of the bacteria used in MIC measurement in this test example, clinical bacteria of MRSA (OM481 strain and OM584 strain) were supplied from Okayama University Hospital (Japan). An MRSA strain N315, a vancomycin intermediate-resistant Staphylococcus aureus (VISA) strain Mu50, and a methicillin-sensitive Staphylococcus aureus (MSSA) strain FDA 209P were used as controls. Vancomycin-resistant enterococcus (VRE) strains NCTC 12201 and FN-1 were supplied from the National Institute of Infectious Disease (Japan).

[3] = system: Methicillin-resistant S. aureus OM481; experiment: In vitro infectivity assay (MIC), Exp. Ex. 2-1; format: cell-based, Staphylococcus aureus; conditions: Gram-positive, microdilution, MIC after 24 h
Procedure: as §1, §2

[4] = system: Methicillin-resistant S. aureus OM584; experiment: In vitro infectivity assay (MIC), Exp. Ex. 2-1; format: cell-based, Staphylococcus aureus; conditions: Gram-positive, microdilution, MIC after 24 h
Procedure: as §1, §2

[5] = system: Methicillin-resistant S. aureus N315; experiment: In vitro infectivity assay (MIC), Exp. Ex. 2-1; format: cell-based, Staphylococcus aureus; conditions: Gram-positive, microdilution, MIC after 24 h
Procedure: as §1, §2

[6] = system: Methicillin sensitive S. aureus 209P; experiment: In vitro infectivity assay (MIC), Exp. Ex. 2-1; format: cell-based, Staphylococcus aureus; conditions: Gram-positive, microdilution, MIC after 24 h
Procedure: as §1, §2

[7] = system: Methicillin-resistant S. aureus COL; experiment: In vitro infectivity assay (MIC), Exp. Ex. 2-1; format: cell-based, Staphylococcus aureus; conditions: Gram-positive, microdilution, MIC after 24 h
Procedure: as §1, §2

[8] = system: Streptococcus pneumoniae R6; experiment: In vitro infectivity assay (MIC), Exp. Ex. 2-1; format: cell-based; conditions: Gram-positive; microdilution, MIC after 24 h
[9] = system: Vancomycin-resistant enterococci NCTC 12201; experiment: In vitro infectivity assay (MIC), Exp. Ex. 2-1; format: cell-based; conditions: Gram-positive; microdilution, MIC after 24 h
Procedure: as §1, §2

[10] = system: Vancomycin-resistant enterococci FN-1; experiment: In vitro infectivity assay (MIC), Exp. Ex. 2-1; format: cell-based; conditions: Gram-positive; microdilution, MIC after 24 h
Procedure: as §1, §2

Row | MIC (Escherichia coli K-12; K12, MIC after 24 h, read-out: MIC (Gram-nagative) K-12) [µg/mL] | MIC ([1]; read-out: MIC (Gram-nagative) PAO1) [µg/mL] | MIC ([2]; Staphylococcus aureus, VISA, read-out: MIC VISA Mu50) [µg/mL] | MIC ([3]; Staphylococcus aureus, MRSA, read-out: MIC MRSA OM481) [µg/mL] | MIC ([4]; Staphylococcus aureus, MRSA, read-out: MIC MRSA OM584) [µg/mL] | MIC ([5]; Staphylococcus aureus, MRSA, read-out: MIC MRSA N315) [µg/mL] | MIC ([6]; Staphylococcus aureus, 209P / MSSA, read-out: MIC MSSA 209P) [µg/mL] | MIC ([7]; Staphylococcus aureus, MRSA) [µg/mL] | Compound | MIC (Gram-nagative) K-12 (Escherichia coli K-12) [µg/mL] | MIC (Gram-nagative) PAO1 [1] [µg/mL] | MIC S. Pneumoniae R6 [8] [µg/mL] | MIC VISA Mu50 [2] [µg/mL] | MIC VRE NCTC 12201 [9] [µg/mL] | MIC VRE FN-1 [10] [µg/mL] | MIC MRSA OM481 [3] [µg/mL] | MIC MRSA OM584 [4] [µg/mL] | MIC MRSA N315 [5] [µg/mL] | MIC MSSA 209P [6] [µg/mL] | MIC MRSA COL [7] [µg/mL]
1 | 8 (≈ 13.1 µM) | 8 (≈ 13.1 µM) | 8 (≈ 13.1 µM) | 0.25 (≈ 0.408 µM) | 0.25 (≈ 0.408 µM) | 0.125 (≈ 0.204 µM) | 0.125 (≈ 0.204 µM) | 0.25 (≈ 0.408 µM) | CO[C@@H]1[C@@H](OC(N)=O)[C@@H](O)[C@H](Oc2ccc3c(O)c(NC(=O)c4ccc(O)c(CC=C(C)C)c4)c(=O)oc3c2C)OC1(C)C [Novobiocin, novobiocin, reference compound] | – | – | – | – | – | – | – | – | – | – | –
2 | – | – | – | – | – | – | – | – | CC(=O)OC[C@H]1O[C@@H](Oc2c(-c3ccc(O)c(O)c3)oc3cc(O)cc(O)c3c2=O)[C@H](OC(C)=O)[C@@H](OC(C)=O)[C@H]1OC(C)=O [Compound 12, 2-(3′,4′-Dihydroxyphenyl)-5,7-dihydroxy-3-β-D-tetraacetylgalactosyl-4H-chromen-4-one] | >128 | >128 | 128 (≈ 202 µM) | 128 (≈ 202 µM) | 64 (≈ 101 µM) | 64 (≈ 101 µM) | 128 (≈ 202 µM) | 128 (≈ 202 µM) | 128 (≈ 202 µM) | 128 (≈ 202 µM) | >128
3 | – | – | – | – | – | – | – | – | penicillin [reference compound] | – | – | 0.5 | – | – | – | – | – | – | – | –
4 | – | – | – | – | – | – | – | – | CC(=O)OC[C@H]1O[C@@H](Oc2cc(O)c3c(=O)c(O[C@@H]4O[C@H](COC(C)=O)[C@H](OC(C)=O)[C@H](OC(C)=O)[C@H]4OC(C)=O)c(-c4ccc(O)c(O)c4)oc3c2)[C@H](OC(C)=O)[C@@H](OC(C)=O)[C@H]1OC(C)=O [Compound 5, 2-(3′,4′Dihydroxyphenyl)-5-hydroxy-3,7-di-β-D-octaacetylgalactosyl-4H-chromen-4-one] | >128 | >128 | 64 (≈ 66.5 µM) | 64 (≈ 66.5 µM) | 32 (≈ 33.2 µM) | 32 (≈ 33.2 µM) | 32 (≈ 33.2 µM) | 32 (≈ 33.2 µM) | 64 (≈ 66.5 µM) | 64 (≈ 66.5 µM) | 128 (≈ 133 µM)
